Experiments:
[1] = Dynamic light scattering size and zeta potential of peptide-loaded PFOB/PFC nanoparticles; assay type: physicochemical; conditions: PFC nanoparticles without and with various amount of peptide loading
Method: The size distributions of the nanoparticles with or without the linker peptide were analyzed by dynamic light scattering (Brookhaven Instruments Corp., Holtsville, N.Y.). Zeta potential (ζ) values were determined with a Brookhaven Instruments PALS Zeta Potential Analyzer (Brookhaven Instruments Corp., Holtsville, N.Y.). Data were acquired in the phase-analysis light scattering (PALS) mode following solution equilibration at 25° C. […] This change further confirms the insertion of the linker peptide 1 into the PFOB nanoparticles. Furthermore, the structural integrity of linker peptide 1 inserted PFOB nanoparticles was confirmed by transmission electron microscopy.
The size distributions of the nanoparticles with or without cargo incorporated were analyzed by dynamic light scattering (Brookhaven Instruments Corp., Holtsville, N.Y.). The size distribution was plotted by particle number. Zeta potential (ζ) values were determined with a Brookhaven Instruments PALS Zeta Potential Analyzer (Brookhaven Instruments Corp., Holtsville, N.Y.). Data were acquired in the phase-analysis light scattering (PALS) mode following solution equilibration at 25° C.

[2] = Surface plasmon resonance of NBD-Linker incorporation into PFC nanoparticles; assay type: binding; conditions: NBD-Linker on immobilized PFC nanoparticles, two-state model; read-out: dissociation constant of the entire process
Method: The kinetics of NBD-Linker incorporation into lipid monolayers of PFC nanoparticles was studied by surface plasmon resonance (SPR). SPR detects change in the […] of a surface (Biacore-X 100 and carboxymethylated dextran chip L1 from Biacore Inc, Piscataway, N.J.). A uniform lipid monolayer on a L1 chip was created by injecting PFC nanoparticles (3 μl/min) for 30 minutes. Loosely deposited nanoparticles were removed by performing extra washing steps after immobilization to ensure a stable baseline. Complete coverage was confirmed by injecting the bovine serum albumin (1 mg/ml in PBS) at 15 μl/min for 2 minutes. Different peptides in selected concentrations were injected at a flow rate of 30 μl/min for 1 minute. At the end of each experiment the chip was regenerated by two consecutive injections of 3-[(3-cholamidopropyl)dimethylammonio]-1-propanesulfonate, CHAPS (50 μl, 100 μl/min). The data were analyzed with BiaEvaluation software (Biacore Inc, Piscataway, N.J.). A two-state model, [17].
To investigate the release rate of the NBD-Linker from the PFC nanoparticles, surface plasma resonance experiments were performed with a Biacore X 100, which allows quantitative analysis of interaction between peptide and lipid membrane. […] We consistently recorded two populations of peptides in the peptide-lipid interactions. […]

[3] = Fluorescence correlation spectroscopy (FCS) diffusion time; assay type: physicochemical; conditions: mean±STD (n=3)
Source text: FCS is a quantitative technique, which detects fluorescence intensity fluctuations as fluorescent molecules diffuse through a small observation volume (<1 femtoliter). Statistical analysis of these fluorescence intensity fluctuations allows simultaneous determination of the number of fluorescent species in the system and their mobility.
In our case the observation volume is defined by the focal volume of a laser scanning microscope, while the statistical analysis of the intensity trace is calculated as follows: […]
The correlation curve obtained from the experiment is fitted with a mathematical function which describes the fluorescence intensity fluctuations in the observation volume according to Brownian diffusion and it also accounts for the photophysical characteristics of the dye:
where N is the average number of fluorescent particles in the observation volume, T is the fraction of fluorophores in the triplet state, τT is the lifetime of the triplet state of the fluorophore, τD is the characteristic diffusion time of the fluorophore, ω0 the waist radius of the laser focus. […]
The waist of the focus ω0 was determined by fitting the autocorrelation curve obtained in the same experimental conditions using free Alexa Fluor 488 [22]. In the case of labeled peptide binding to the nanoparticles the correlation curves were analyzed using the two component model as was described previously.

Compound	mean diameters [1]	Kd [2] [nM]	diffusion time [3] [μsec]
NBD peptide (TALDWSWLQTE) fused onto the N-terminal of linker peptide (VLTTGLPALISWIKRKRQQ) with two glycines as a spacer [NBD-Linker]	equivalent	140	–
N=c1ccc2c(-c3ccc(C(=O)O)cc3C(=O)O)c3ccc(N)c(S(=O)(=O)O)c3oc-2c1S(=O)(=O)O [Alexa Fluor 488]	–	–	35.8±1.4

— patent US8617516B2, “Universal anchor peptide for nanoparticles” (Washington University, priority 2008, dated 2013)
